Measurements taken from US5658910A, “Nicotinic acid esters” (Pharmacia AB, priority 1992, dated 1997).
Counter-ions that a name gives are not always drawn.

Key:
5HT1A-receptors = target: T1, 5HT1A-receptors (Bos taurus, UniProt F6Q2H9); assay: Affinity for 5HT1A-receptors (Test 2, Peroutka binding assay)
T1 construct: from tissue
T1 sequence (F6Q2H9 1-422): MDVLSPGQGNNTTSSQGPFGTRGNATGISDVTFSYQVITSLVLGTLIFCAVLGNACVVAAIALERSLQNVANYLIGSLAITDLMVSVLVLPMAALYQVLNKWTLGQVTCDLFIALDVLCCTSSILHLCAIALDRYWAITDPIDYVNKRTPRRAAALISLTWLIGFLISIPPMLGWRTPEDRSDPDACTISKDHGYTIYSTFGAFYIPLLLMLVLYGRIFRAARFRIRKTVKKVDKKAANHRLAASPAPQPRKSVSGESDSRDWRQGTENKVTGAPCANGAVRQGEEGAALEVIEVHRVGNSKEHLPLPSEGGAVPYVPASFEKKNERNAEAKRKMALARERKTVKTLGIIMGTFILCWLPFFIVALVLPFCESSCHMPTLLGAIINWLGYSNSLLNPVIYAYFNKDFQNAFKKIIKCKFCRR

5HT2-receptors = target: T2, 5HT2-receptors (Rattus norvegicus, UniProt P14842); assay: Affinity for 5HT2-receptors (Test 1, 3H-ketanserin binding, Leysen et al.); conditions: 3H-ketanserin as ligand
T2 construct: from tissue
T2 sequence (P14842 whole entry): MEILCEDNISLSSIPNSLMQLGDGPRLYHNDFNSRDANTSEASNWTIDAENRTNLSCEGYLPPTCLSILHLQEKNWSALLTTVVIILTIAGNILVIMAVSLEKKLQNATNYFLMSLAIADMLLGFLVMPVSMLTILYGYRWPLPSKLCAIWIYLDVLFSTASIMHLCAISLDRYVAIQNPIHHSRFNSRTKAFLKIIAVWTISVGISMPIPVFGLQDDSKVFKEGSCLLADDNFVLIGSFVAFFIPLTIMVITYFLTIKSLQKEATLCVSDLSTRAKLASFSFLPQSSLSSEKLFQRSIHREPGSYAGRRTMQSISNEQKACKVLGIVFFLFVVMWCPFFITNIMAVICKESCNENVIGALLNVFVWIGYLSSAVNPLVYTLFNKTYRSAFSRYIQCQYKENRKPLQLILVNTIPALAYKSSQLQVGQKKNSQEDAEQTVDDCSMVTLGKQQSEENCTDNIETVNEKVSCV
Experimental: Test 1. Affinity for 5HT2-receptors
The binding assay was carried out essentially as described by Leysen et al., (Mol. Pharmcol. 21, 301-314, 1982) using 3 H-kezanserine as ligand.

Compound	Ki (5HT1A-receptors) [nM]	Ki (5HT2-receptors) [nM]
COC(=O)c1cccnc1N1CCN(CCCC(c2ccc(F)cc2)c2ccc(F)cc2)CC1 [2:4, 1-[4,4 -Bis(p-fluorophenyl)butyl]-4-(3-methoxycarbonyl-2-pyridyl)-piperazine, hydrochloride]	0.7	4
CCOC(=O)c1cccnc1N1CCN(CCCC(c2ccc(F)cc2)c2ccc(F)cc2)CC1 [2:1, 3-Pyridinecarboxylic acid (2-(4-(4,4-bis(4-fluorophenyl)butyl)-1-piperazinyl-)ethyl ester hydrochloride]	1.2	5.7
CC(C)CCOC(=O)c1cccnc1N1CCN(CCCC(c2ccc(F)cc2)c2ccc(F)cc2)CC1 [2:7, 1-[4,4-Bis(p-fluorophenyl)butyl]-4-(3-isoamyloxycarbonyl-2-pyridyl)-piperazine, hydrochloride]	14	2.7
O=C(OCc1ccccn1)c1cccnc1N1CCN(CCCC(c2ccc(F)cc2)c2ccc(F)cc2)CC1 [2:10, 1-[4,4-Bis(p-fluorophenyl)butyl]-4-[3-(2-pyridinylmethoxycarbonyl)-2-pyridyl]-piperazine, hydrochloride]		0.6
